# Data: patent US10287297B2, “Epoxyazulene derivatives useful for treating cancer and diabetes” (The United States of America, as represented by the …, priority 2015, dated 2019)
# How the values were obtained:
# Format in all cases: cell-based
# [1] = system: UO-31; assay: NCI 60 cell assay, renal UO-31; details: Homo sapiens, 48 h; UO-31 (renal); drug exposure two days, SRB endpoint; read-out: GI-50 value
# Procedure: (§1) Samples were tested in the standard National Cancer Institute 60-cell line protocol. First, they were tested against all 60 cell lines in a single final concentration of 10 micromolar. Then, they were separately tested in five 10-fold dilutions. The drug exposure was two days, with an SRB endpoint.
# [2] = system: MOLT-4; assay: NCI 60 cell assay, leukemia MOLT-4; details: Homo sapiens, 48 h; MOLT-4 (leukemia); drug exposure two days, SRB endpoint; read-out: GI-50 value
# Procedure: as §1
# [3] = system: SF-268; assay: NCI 60 cell assay, CNS SF-268; details: Homo sapiens, 48 h; SF-268 (CNS); drug exposure two days, SRB endpoint; read-out: GI-50 value
# Procedure: as §1
# [4] = system: EKVX; assay: NCI 60 cell assay, NSCLC EKVX; details: Homo sapiens, 48 h, drug exposure two days, SRB endpoint, read-out: GI-50 value
# Procedure: as §1
# [5] = system: SK-MEL-28; assay: NCI 60 cell assay, melanoma SK-MEL-28; details: Homo sapiens, 48 h; SK-MEL-28 (melanoma); drug exposure two days, SRB endpoint; read-out: GI-50 value
# Procedure: as §1
# [6] = system: UACC-257; assay: NCI 60 cell assay, melanoma UACC-257; details: Homo sapiens, 48 h; UACC-257 (melanoma); drug exposure two days, SRB endpoint; read-out: GI-50 value
# Procedure: as §1
# [7] = system: TK-10; assay: NCI 60 cell assay, renal TK-10; details: Homo sapiens, 48 h; TK-10 (renal); drug exposure two days, SRB endpoint; read-out: GI-50 value
# Procedure: as §1
# [8] = system: SK-MEL-2; assay: NCI 60 cell assay, melanoma SK-MEL-2; details: Homo sapiens, 48 h; SK-MEL-2 (melanoma); drug exposure two days, SRB endpoint; read-out: GI-50 value
# Procedure: as §1
# [9] = system: U251; assay: NCI 60 cell assay, CNS U251; details: Homo sapiens, U-251, 48 h, drug exposure two days, SRB endpoint, read-out: GI-50 value
# Procedure: as §1
# [10] = system: RXF 393; assay: NCI 60 cell assay, renal RXF 393; details: Homo sapiens, 48 h; RXF 393 (renal); drug exposure two days, SRB endpoint; read-out: GI-50 value
# Procedure: as §1
# [11] = system: SNB-19; assay: NCI 60 cell assay, CNS SNB-19; details: Homo sapiens, 48 h; SNB-19 (CNS); drug exposure two days, SRB endpoint; read-out: GI-50 value
# Procedure: as §1
# [12] = system: HCT-15; assay: NCI 60 cell assay, colon HCT-15; details: Homo sapiens, 48 h; HCT-15 (colon); drug exposure two days, SRB endpoint; read-out: GI-50 value
# Procedure: as §1
# [13] = system: SF-295; assay: NCI 60 cell assay, CNS SF-295; details: Homo sapiens, 48 h; SF-295 (CNS); drug exposure two days, SRB endpoint; read-out: GI-50 value
# Procedure: as §1
# [14] = system: A549/ATCC; assay: NCI 60 cell assay, NSCLC A549/ATCC; details: Homo sapiens, 48 h, drug exposure two days, SRB endpoint, read-out: GI-50 value
# Procedure: as §1
# [15] = system: PC-3; assay: NCI 60 cell assay, prostate PC-3; details: Homo sapiens, 48 h; PC-3 (prostate); drug exposure two days, SRB endpoint; read-out: GI-50 value
# Procedure: as §1
# [16] = system: UACC-62; assay: NCI 60 cell assay, melanoma UACC-62; details: Homo sapiens, 48 h; UACC-62 (melanoma); drug exposure two days, SRB endpoint; read-out: GI-50 value
# Procedure: as §1
# [17] = system: 786-0; assay: NCI 60 cell assay, renal 786-0; details: Homo sapiens, 48 h; 786-0 (renal); drug exposure two days, SRB endpoint; read-out: GI-50 value
# Procedure: as §1
# [18] = system: OVCAR-4; assay: NCI 60 cell assay, ovarian OVCAR-4; details: Homo sapiens, 48 h; OVCAR-4 (ovarian); drug exposure two days, SRB endpoint; read-out: GI-50 value
# Procedure: as §1
# [19] = system: ACHN; assay: NCI 60 cell assay, renal ACHN; details: Homo sapiens, 48 h, drug exposure two days, SRB endpoint, read-out: GI-50 value
# Procedure: as §1
# [20] = system: CAKI-1; assay: NCI 60 cell assay, renal CAKI-1; details: Homo sapiens, 48 h; CAKI-1 (renal); drug exposure two days, SRB endpoint; read-out: GI-50 value
# Procedure: as §1
# [21] = system: SK-MEL-5; assay: NCI 60 cell assay, melanoma SK-MEL-5; details: Homo sapiens, 48 h; SK-MEL-5 (melanoma); drug exposure two days, SRB endpoint; read-out: GI-50 value
# Procedure: as §1
# [22] = system: NCI-H522; assay: NCI 60 cell assay, NSCLC NCI-H522; details: Homo sapiens, 48 h, drug exposure two days, SRB endpoint, read-out: GI-50 value
# Procedure: as §1
# [23] = system: K-562; assay: NCI 60 cell assay, leukemia K-562; details: Homo sapiens, K562, 48 h; K-562 (leukemia); drug exposure two days, SRB endpoint; read-out: GI-50 value
# Procedure: as §1
# [24] = system: OVCAR-8; assay: NCI 60 cell assay, ovarian OVCAR-8; details: Homo sapiens, 48 h; OVCAR-8 (ovarian); drug exposure two days, SRB endpoint; read-out: GI-50 value
# Procedure: as §1
# [25] = system: SNB-75; assay: NCI 60 cell assay, CNS SNB-75; details: Homo sapiens, 48 h; SNB-75 (CNS); drug exposure two days, SRB endpoint; read-out: GI-50 value
# Procedure: as §1
# [26] = system: OVCAR-5; assay: NCI 60 cell assay, ovarian OVCAR-5; details: Homo sapiens, 48 h; OVCAR-5 (ovarian); drug exposure two days, SRB endpoint; read-out: GI-50 value
# Procedure: as §1
SMILES,GI50 [1] [µM],GI50 [2] [µM],GI50 [3] [µM],GI50 [5] [µM],GI50 [6] [µM],GI50 [7] [µM],GI50 [8] [µM],GI50 [9] [µM],GI50 [10] [µM],GI50 [11] [µM],GI50 [12] [µM],GI50 [13] [µM],GI50 [14] [µM],GI50 [15] [µM],GI50 [16] [µM],GI50 [17] [µM],GI50 [18] [µM],GI50 [19] [µM],GI50 [20] [µM],GI50 [21] [µM],other results
"CC1=C2[C@@H](CC1)[C@]1(C)O[C@@](c3ccccc3)(C[C@H]1OC(=O)CO)[C@H]2OC(=O)C=Cc1ccccc1 [(Ir), (3aR,4S,5R,7R,8S)-5-(2-hydroxyacetoxy)-1,4-dimethyl-7-phenyl-2,3,3a,4,5,6,7,8-octahydro-4,7-epoxyazulen-8-yl cinnamate]",0.55,12,1.4,18,19,23,16,13,0.027,22,13,14,15,10,15,14,15,0.035,13,15,GI50 [4]: 15 µM; GI50 [22]: 17 µM; GI50 [23]: 16 µM; GI50 [24]: 0.26 µM; GI50 [25]: 15 µM; GI50 [26]: 22 µM
CC1=C2[C@@H](CC1)[C@]1(C)O[C@@](C(C)C)(C[C@H]1OC(=O)CO)[C@H]2OC(=O)/C=C/c1ccccc1 [Compound (Ih)],0.04,40,2.6,42,40,100,44,35,0.13,39,32,40,33,26,100,35,35,0.022,1.07,35,GI50 [22]: 40 µM; GI50 [23]: 38 µM; GI50 [24]: 0.09 µM; GI50 [25]: 2.9 µM; GI50 [26]: 41 µM
"CC1=C2[C@@H](CC1)[C@]1(C)O[C@@](C(C)C)(C[C@H]1OC(=O)CO)[C@H]2OC(=O)C1CC1c1ccccc1 (stereo partly drawn) [Compound (Ij), (3aR,4S,5R,7R,8S)-5-(2-hydroxyacetoxy)-7-isopropyl-1,4-dimethyl-2,3,3a,4,5,6,7,8-octahydro-4,7-epoxyazulen-8-yl-2-phenylcyclopropane-1-carboxylate]",11,9,14,17,16,17,16,15,0.069,17,13,13,13,9,12,15,14,1.4,12,16,GI50 [4]: 13 µM; GI50 [22]: 13 µM; GI50 [23]: 15 µM; GI50 [24]: 13 µM; GI50 [25]: 15 µM; GI50 [26]: 20 µM
"CC1=C2[C@@H](CC1)[C@]1(C)O[C@@](C3CC3)(C[C@H]1OC(=O)CO)[C@H]2OC(=O)C=Cc1ccccc1 [Compound (Is), (3aR,4S,5R,7R,8S)-7-cyclopropyl-5-(2-hydroxyacetoxy)-1,4-dimethyl-2,3,3a,4,5,6,7,8-octahydro-4,7-epoxyazulen-8-yl cinnamate]",0.33,16,1.6,18,16,19,19,15,0.014,19,14,17,14,15,15,13,15,0.028,11,18,GI50 [4]: 14 µM; GI50 [22]: 17 µM; GI50 [23]: 20 µM; GI50 [24]: 0.054 µM; GI50 [25]: 13 µM; GI50 [26]: 17 µM
